Patent US20040192782A1, “Erucamide compounds for the treatment and prevention to disturbances of the secretory system” (priority 2001, published 2004)

Columns and labels:
[1] = system: transport of Na+ from plasma to CSF; experiment: CSF production measured as 22Na+ transport from plasma to CSF after intraventricular administration; assay type: in vivo, rat; conditions: 5 μl/min, 300 g rats under halothan, 22Na+ i.v. 30 min after erucamide
From the text: Effect of erucamide and analogues thereof on CSF production Production of CSF depends mainly on active transport of Na^+ from the blood to the brain ventricles (Davson and Segal, 1970). Water then follows the net transport of Na^+ and other ions to maintain osmotic balance. Therefore, formation of CSF is directly proportional to Na^+ transport into the ventricular cavities. A simple technique to measure CSF production is to determine the turnover of plasma Na^+ into CSF. The method involves maintenance of a steady state level of ^22Na^+ in plasma and sampling ^22Na^+ in the CSF at various times after injection of the isotope (Knuckey et al., 1991). […] A 2-3 mm long micro-dialysis tubing, connecting 2 polyethylene tubings, was permanently placed in the cisterna magna for sampling of CSF. […] Blood samples were taken from the tail veins at 15, 30, 90 and 180 min. Blood and CSF samples were analyzed for radioactivity. Intraventricularly administered erucamide reduced by over 40% the transport of Na^+ from plasma to CSF.

[2] = system: cholera toxin induced diarrhea in the jejunum of the rat; conditions: in vivo
CSF production = conditions: in vivo; cited from earlier work

CCCCCCCC/C=C\CCCCCCCCCCCC(N)=O [erucamide, cis-13-docosenoamide]
Reduction of transport of Na+ from plasma to CSF [1]: over 40%
Dose giving maximal antisecretory activity, expressed as concentration [2]: 0.3 pM
Dose giving maximal antisecretory activity ([2]; iv): 1×10^−10 g/kg/dose
Maximal antisecretory activity (inhibition of cholera toxin induced diarrhea) ([2]; iv): 75 % inhibition

CC(=O)Nc1nnc(S(N)(=O)=O)s1 [aztzoiamide]
Inhibition of CSF production (CSF production): 50%

CCCCCCCC/C=C\CCCCCCCCCCCC(=O)O [Erucic acid, cis-13-docosenoic acid, reference compound]
Antisecretory activity in the rat intestine model (in words) [2]: does not display any antisecretory activity

CCCCC/C=C\C/C=C\C/C=C\C/C=C\CCCC(=O)O [Arachidonic acid, reference compound]
Antisecretory activity relative to erucamide activity [2]: less than 20 % of the erucamide activity
